The text below walks through data of ChEMBL document CHEMBL1201862, “PubChem BioAssay data set” (2004).

Test systems include LOX IMVI; SF-295; SNB-19; UACC-62; DLD-1; LXFL 529; CAKI-1; HCC 2998; SF-268; NCI-H23; HCT-15; SNB-78; U-251; SK-MEL-28; SN12C; DMS-114; SNB-75.
Holding throughout (experiment): growth of human tumour cells (NCI), 48 h

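Cells were grown in 96-well plates and exposed to each compound for 48 hours at five concentrations; endpoints were interpolated linearly between bracketing concentrations, or set to the highest concentration if not reached. GI50 = concentration required for 50% inhibition of growth.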 Activity calls are given as the source filed them. No stated cut-off is given here; in the data, active = GI50 up to about 1.1 µM and inactive = higher.

Take `CN(NC1OC(CO)C(O)C(O)C1O)c1ccccc1` (stereo not given): the GI50 in the experiment on LOX IMVI, in the experiment with SF-295, in the experiment with SNB-19, in the experiment with UACC-62, in the experiment on DLD-1 and with LXFL 529 was > 100 µM (inactive) each time. For the same compound, the GI50 in the experiment on CAKI-1 is > 100 µM (inactive); with HCC 2998, 43.4 µM (inactive); in the experiment with SF-268, > 100 µM (inactive); with NCI-H23, > 100 µM (inactive); in the experiment with HCT-15, > 100 µM; in the experiment on SNB-78 it was > 100 µM (inactive). Moreover, the GI50 in the experiment with U-251 and with SK-MEL-28 was > 100 µM (inactive) in each case.
Take `C1=CC(=NN=P(c2ccccc2)(c2ccccc2)c2ccccc2)C=C1`: the GI50 with LOX IMVI is > 100 µM (inactive); in the experiment with SNB-19 it was > 100 µM (inactive); in the experiment on SN12C it was > 100 µM (inactive); with UACC-62, > 100 µM (inactive); with DLD-1, > 100 µM (inactive); in the experiment on DMS-114, 51.9 µM (inactive). For the same compound, the GI50 with LXFL 529, in the experiment with CAKI-1, in the experiment on HCC 2998, in the experiment with SF-268, in the experiment with NCI-H23 and in the experiment with SNB-75 was > 100 µM (inactive) each time. Also, the GI50 in the experiment on HCT-15 was > 100 µM; in the experiment with SK-MEL-28, > 100 µM (inactive).
For `Oc1cccc2nc3cc(CN4CCOCC4)c(CN4CCOCC4)cc3nc12`, the GI50 is 38.3 µM (inactive) in the experiment on LOX IMVI; 45.8 µM (inactive) with SF-295; > 100 µM (inactive) with SNB-19; 79.3 µM (inactive) with SN12C; 40.2 µM (inactive) in the experiment with UACC-62; 61 µM (inactive) with DLD-1. In addition, the GI50 with LXFL 529 was 48.1 µM (inactive); in the experiment with CAKI-1, > 100 µM (inactive); in the experiment with HCC 2998, 50.8 µM (inactive); with SF-268 it was 48.2 µM (inactive); in the experiment with NCI-H23, > 100 µM (inactive); in the experiment with SNB-75, > 100 µM (inactive). Also, the GI50 in the experiment with HCT-15 was 37.4 µM; in the experiment with SNB-78 it was > 100 µM (inactive); with U-251 it was 33.6 µM (inactive); with SK-MEL-28, > 100 µM (inactive).
As for `COc1ccc(C2=CC3CCC2C3)cc1` (stereo not given), the GI50 in the experiment with LOX IMVI, in the experiment with SF-295, in the experiment with SNB-19, with SN12C, in the experiment with UACC-62 and with DLD-1 was > 100 µM (inactive) throughout. Moreover, the GI50 in the experiment with LXFL 529 is 0.0535 µM (active); in the experiment with CAKI-1, > 100 µM (inactive); in the experiment on SF-268, > 100 µM (inactive); in the experiment with NCI-H23, > 100 µM (inactive); in the experiment with SNB-75, > 100 µM (inactive); with HCT-15 it was > 100 µM. Also, the GI50 in the experiment on SNB-78, with U-251 and in the experiment with SK-MEL-28 was > 100 µM (inactive) throughout.
With `C/C(=C\c1ccccc1)C(O)C(=O)c1nc2ccc(Cl)cc2nc1O` (stereo not given), the GI50 in the experiment with LOX IMVI, in the experiment with SF-295, in the experiment with SNB-19, with SN12C, in the experiment on UACC-62 and in the experiment on DLD-1 was > 100 µM (inactive) in each case. Moreover, the GI50 is 46.3 µM (inactive) with DMS-114; 84.5 µM (inactive) in the experiment on LXFL 529; > 100 µM (inactive) in the experiment on CAKI-1; > 100 µM (inactive) in the experiment on HCC 2998; > 100 µM (inactive) in the experiment on SF-268; > 100 µM (inactive) in the experiment on NCI-H23. Also, the GI50 is > 100 µM in the experiment on HCT-15, > 100 µM (inactive) in the experiment with SNB-78, > 100 µM (inactive) in the experiment on U-251 and > 100 µM (inactive) in the experiment with SK-MEL-28.
As for `O=C1c2ccccc2C(=O)N1CCn1nc(-c2ccccc2)cc(-c2ccccc2)c1=O`, the GI50 is 56 µM (inactive) with SF-295; > 100 µM (inactive) with SNB-19; 44.6 µM (inactive) in the experiment with SN12C; 51.2 µM (inactive) in the experiment on UACC-62; > 100 µM (inactive) with DLD-1; > 100 µM (inactive) in the experiment on DMS-114. Besides, the GI50 with LXFL 529 was 52.2 µM (inactive); in the experiment on HCC 2998 it was 67.8 µM (inactive); in the experiment on SF-268, > 100 µM (inactive); with NCI-H23, 43.2 µM (inactive); with SNB-75, 46.7 µM (inactive); in the experiment with HCT-15, 38.2 µM. The GI50 in the experiment on SNB-78 was > 100 µM (inactive); in the experiment with U-251, 71.1 µM (inactive); in the experiment on SK-MEL-28 it was > 100 µM (inactive).
Turning to `CC(=O)NNc1nc(C)c(C(=O)NNC(=O)C(=O)Nc2ccc(Cl)cc2)s1`, the GI50 with LOX IMVI was 53 µM (inactive); in the experiment on SF-295 it was > 100 µM (inactive); in the experiment on SNB-19, > 100 µM (inactive); in the experiment on SN12C, > 100 µM (inactive); in the experiment on UACC-62 it was > 100 µM (inactive); in the experiment on LXFL 529, 34.7 µM (inactive). Moreover, the GI50 in the experiment with HCC 2998 was > 100 µM (inactive); in the experiment with SF-268, 49.7 µM (inactive); in the experiment with NCI-H23 it was > 100 µM (inactive); in the experiment on HCT-15, > 100 µM; in the experiment with SNB-78, > 100 µM (inactive); in the experiment with U-251 it was > 100 µM (inactive). Besides, the GI50 with SK-MEL-28 was > 100 µM (inactive).
In the case of `COc1ccc(C)cc1C1CCC(=O)O1` (stereo not given), the GI50 in the experiment with LOX IMVI, with SF-295, in the experiment with SNB-19, in the experiment on SN12C, with UACC-62 and in the experiment on DLD-1 was > 100 µM (inactive) each time. Moreover, the GI50 was > 100 µM (inactive) in the experiment on DMS-114; > 100 µM (inactive) with LXFL 529; > 100 µM (inactive) in the experiment on HCC 2998; > 100 µM (inactive) with NCI-H23; > 100 µM (inactive) with SNB-75; > 100 µM in the experiment on HCT-15. Besides, the GI50 in the experiment on SNB-78, with U-251 and in the experiment on SK-MEL-28 was > 100 µM (inactive) each time.
Turning to `O=C(/C=C/c1ccccc1O)c1cccs1`, the GI50 with LOX IMVI, in the experiment with SF-295, with SNB-19, in the experiment on SN12C, in the experiment on UACC-62 and in the experiment on DLD-1 was > 100 µM (inactive) each time. Further, the GI50 in the experiment on LXFL 529, with CAKI-1, in the experiment with HCC 2998, in the experiment with SF-268, in the experiment with NCI-H23 and in the experiment with SNB-75 was > 100 µM (inactive) each time. Besides, the GI50 is > 100 µM in the experiment on HCT-15, > 100 µM (inactive) with SNB-78, > 100 µM (inactive) in the experiment on U-251 and > 100 µM (inactive) in the experiment with SK-MEL-28.
As for `COc1cc2ccc3c4c(OC)cc(OC)c(OC)c4c([O-])[n+](C)c3c2cc1OC`, the GI50 is 4.47 µM (inactive) with SF-295; 15.7 µM (inactive) with SNB-19; 1.74 µM (inactive) with SN12C; 25.1 µM (inactive) with UACC-62; 2.37 µM (inactive) in the experiment with DMS-114; 1.79 µM (inactive) with LXFL 529. For the same compound, the GI50 with CAKI-1 is > 20.6 µM (inactive); in the experiment on HCC 2998, 14.4 µM (inactive); in the experiment with SF-268 it was 3.46 µM (inactive); in the experiment with NCI-H23, 10.1 µM (inactive); in the experiment with SNB-75, 11.8 µM (inactive); in the experiment with SNB-78 it was 10.2 µM (inactive). Besides, the GI50 was 1.39 µM (inactive) with U-251 and 30.3 µM (inactive) in the experiment on SK-MEL-28.
With `COc1cccc(-c2nccc3c(OCc4ccccc4)c(OC)c(OC)cc23)c1`, the GI50 with LOX IMVI was > 100 µM (inactive); with SF-295, > 100 µM (inactive); with SNB-19 it was > 100 µM (inactive); with SN12C, 7.67 µM (inactive); with UACC-62, > 100 µM (inactive); in the experiment with DLD-1, 7.74 µM (inactive). Further, the GI50 in the experiment on DMS-114 is 35.6 µM (inactive); in the experiment with LXFL 529, 5.74 µM (inactive); in the experiment on HCC 2998, 58.3 µM (inactive); in the experiment on SF-268, > 100 µM (inactive); in the experiment with NCI-H23 it was 4.09 µM (inactive); in the experiment on SNB-75, > 100 µM (inactive). Further, the GI50 is 4.72 µM in the experiment on HCT-15, 63.1 µM (inactive) with SNB-78 and 6.46 µM (inactive) with U-251.
As for `O=C1c2cc3c(cc2[C@@H]2C(O)[C@H]4O[C@H]4C4CCN1C42)OCO3` (stereo not given in full), the GI50 with LOX IMVI, in the experiment on SF-295, in the experiment on SNB-19, in the experiment with SN12C, with UACC-62 and in the experiment on DMS-114 was > 37.5 µM (inactive) in each case. Besides, the GI50 with LXFL 529 is > 37.5 µM (inactive); in the experiment with CAKI-1, 25.3 µM (inactive); with HCC 2998, > 37.5 µM (inactive); in the experiment with SF-268, > 37.5 µM (inactive); with HCT-15, > 37.5 µM; in the experiment on SK-MEL-28 it was > 37.5 µM (inactive).
Take `c1ccc(N2N=C(c3ccco3)CC2c2ccco2)cc1` (stereo not given): the GI50 was > 100 µM (inactive) in the experiment on LOX IMVI; 57.1 µM (inactive) in the experiment with SF-295; > 100 µM (inactive) with SNB-19; > 100 µM (inactive) with SN12C; 91.6 µM (inactive) in the experiment on UACC-62; 49.2 µM (inactive) with DMS-114. For the same compound, the GI50 with LXFL 529 is 64.1 µM (inactive); in the experiment on SF-268, > 100 µM (inactive); in the experiment with NCI-H23, 66.5 µM (inactive); with SNB-75 it was 22.3 µM (inactive); in the experiment with HCT-15, 69.8 µM; with SNB-78, > 100 µM (inactive). The GI50 in the experiment on U-251 and with SK-MEL-28 was > 100 µM (inactive) each time.
For `CN(C)/C(=N\C#N)N(Cc1ccccc1)Cc1ccccc1`, the GI50 in the experiment with LOX IMVI is 36.6 µM (inactive); in the experiment with SF-295, 68.4 µM (inactive); in the experiment on SNB-19 it was > 100 µM (inactive); in the experiment with SN12C it was > 100 µM (inactive); with UACC-62 it was 62.4 µM (inactive); in the experiment with DLD-1 it was 43.2 µM (inactive). The GI50 was 56.5 µM (inactive) in the experiment on LXFL 529; > 100 µM (inactive) in the experiment on CAKI-1; 72.1 µM (inactive) with HCC 2998; 98.2 µM (inactive) with SF-268; > 100 µM (inactive) in the experiment on NCI-H23; > 100 µM (inactive) in the experiment on SNB-75. Also, the GI50 in the experiment with HCT-15 is 16.6 µM; in the experiment on SNB-78 it was > 100 µM (inactive); in the experiment on U-251 it was > 100 µM (inactive); with SK-MEL-28, > 100 µM (inactive).
